Patent US6274715A, “Tricyclic erythromycin derivatives” (priority 1997, dated 2001)
≈ marks a conversion by molar mass, not a printed value.

Experiments:
Type in all cases: cell-based
[1] = test system: STAPHYLOCOCCUS AUREUS ATCC 6538P; experiment: In vitro antibacterial activity, MIC, BHI agar dilution; details: S. aureus ATCC 6538P, 35-37° C., 20 to 24 hours, unit assumed
[2] = test system: STAPHYLOCOCCUS AUREUS A5177; experiment: as above; details: S. aureus A5177, unit assumed
[3] = test system: STAPHYLOCOCCUS AUREUS A-5278; experiment: as above; details: S. aureus A-5278, unit assumed
[4] = test system: STAPHYLOCOCCUS AUREUS CMX 642A; experiment: as above; details: S. aureus CMX 642A, unit assumed
[5] = test system: STAPHYLOCOCCUS AUREUS NCTC10649M; experiment: as above; details: S. aureus NCTC10649M, unit assumed
[6] = test system: STAPHYLOCOCCUS AUREUS CMX 553; experiment: as above; details: S. aureus CMX 553, unit assumed
[7] = test system: STAPHYLOCOCCUS AUREUS 1775; experiment: as above; details: S. aureus 1775, unit assumed
[8] = test system: STAPHYLOCOCCUS EPIDERMIDIS 3519; details: S. epidermidis 3519; BHI agar; unit assumed
[9] = test system: EN[…] ATCC 8043; experiment: In vitro antibacterial activity, MIC, BHI agar dilution; details: E. faecium ATCC 8043, unit assumed
Outline: (§1)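 Twelve successive aqueous dilutions of compound in Brain Heart Infusion agar were inoculated with 1:100 culture dilutions (1:10 for slow growers such as Micrococcus, Streptococcus) by Steers replicator and incubated at 35-37° C for 20 to 24 hours. MIC was the lowest concentration giving no growth, slight haze or sparse colonies versus drug-free control.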

[10] = test system: M[…] ATCC 4698; experiment: as above; details: M. luteus ATCC 4698, unit assumed
Outline: as §1

[11] = test system: M[…] ATCC 9341; experiment: as above; details: M. luteus ATCC 9341, unit assumed
Outline: as §1

[12] = test system: STR[…] 508; experiment: as above; details: S. agalactiae CMX 508, unit assumed
Outline: as §1

[13] = test system: STREPTOCOCCUS BOVIS A-5169; experiment: as above; details: S. bovis A-5169, unit assumed
[14] = test system: STREPTOCOCCUS PYOGENES EES61; experiment: as above; details: S. pyogenes EES61, unit assumed
[15] = test system: STREPTOCOCCUS PYOGENES 930; experiment: as above; details: S. pyogenes 930, unit assumed
[16] = test system: STREPTOCOCCUS PYOGENES PIU 2548; experiment: as above; details: S. pyogenes PIU 2548, unit assumed
[17] = test system: ESCHERICHIA COLI JUHL; details: E. coli JUHL; BHI agar; unit assumed
[18] = test system: ESCHERICHIA COLI SS; experiment: In vitro antibacterial activity, MIC, BHI agar dilution; details: E. coli SS, unit assumed
[19] = test system: ESCHERICHIA COLI DC-2; experiment: as above; details: E. coli DC-2, unit assumed
[20] = test system: ESCHERICHIA COLI H560; experiment: as above; details: E. coli H560, unit assumed
[21] = test system: ESCHERICHIA COLI KNK 437; details: E. coli KNK 437; BHI agar; unit assumed
[22] = test system: ENTEROBACTER AEROGENES ATCC 13048; experiment: In vitro antibacterial activity, MIC, BHI agar dilution; details: E. aerogenes ATCC 13048, unit assumed
[23] = test system: KLEBSIELLA PNEUMONIAE ATCC 8045; experiment: as above; details: K. pneumoniae ATCC 8045, unit assumed
[24] = test system: PROVIDENCIA STUARTII CMX 640; details: P. stuartii CMX 640; BHI agar; unit assumed
[25] = test system: PSEUDOMONAS AERUGINOSA BMH10; experiment: In vitro antibacterial activity, MIC, BHI agar dilution; details: P. aeruginosa BMH10, unit assumed
[26] = test system: PSEUDOMONAS AERUGINOSA 5007; experiment: as above; details: P. aeruginosa 5007, unit assumed
[27] = test system: PSEUDOMONAS AERUGINOSA K799/WT; experiment: as above; details: P. aeruginosa K799/WT, unit assumed
[28] = test system: PSEUDOMONAS AERUGINOSA K799/61; experiment: as above; details: P. aeruginosa K799/61, unit assumed
[29] = test system: PSEUDOMONAS CEPACIA 296I; experiment: as above; details: P. cepacia 296I, unit assumed
[30] = test system: PSEUDOMONAS AERUGINOSA DPHD-5263; experiment: as above; details: P. aeruginosa DPHD-5263, unit assumed
[31] = test system: PSEUDOMONAS AERUGINOSA DPHD-2862; experiment: as above; details: P. aeruginosa DPHD-2862, unit assumed
[32] = test system: CANDIDA ALBICANS CCH 442; experiment: as above; details: C. albicans CCH 442, unit assumed
[33] = test system: MYCOBACTERIUM SMEGMATIS ATCC 114; experiment: as above; details: M. smegmatis ATCC 114, unit assumed

In the case of `CCC1OC(=O)C(C)C(=O)C(C)C(OC2OC(C)CC(N(C)C)C2O)C(C)(OC)CC(C)C2=NC(CN3CCCCC3)CN3C(=O)OC1(C)C3C2C` (stereo not drawn) [Example 96], the MIC [1] is reported as 0.2 µg/mL (≈ 0.272 µM), the MIC [2] is reported as 0.2 µg/mL (≈ 0.272 µM) and the MIC [3] is reported as over 100 µg/mL. It also gave an MIC [4] of 0.39 µg/mL (≈ 0.531 µM), an MIC [5] of 0.39 µg/mL (≈ 0.531 µM) and an MIC [6] of 0.39 µg/mL (≈ 0.531 µM). For the same molecule, the MIC [7] was over 100 µg/mL, the MIC [8] was 0.39 µg/mL (≈ 0.531 µM) and the MIC [9] was 0.1 µg/mL (≈ 0.136 µM). The MIC [10] was 0.39 µg/mL (≈ 0.531 µM), the MIC [11] was 0.02 µg/mL (≈ 0.0272 µM) and the MIC [12] was 0.05 µg/mL (≈ 0.068 µM). It also gave an MIC [13] of 0.01 µg/mL (≈ 0.0136 µM), an MIC [14] of 0.02 µg/mL (≈ 0.0272 µM) and an MIC [15] of over 100 µg/mL. It also gave an MIC [16] of 0.39 µg/mL (≈ 0.531 µM), an MIC [17] of 25 µg/mL (≈ 34 µM) and an MIC [18] of 0.39 µg/mL (≈ 0.531 µM). For the same molecule, the MIC [19] was 25 µg/mL (≈ 34 µM), the MIC [20] was 12.5 µg/mL (≈ 17 µM) and the MIC [21] was 50 µg/mL (≈ 68 µM). For the same molecule, the MIC [22] was 100 µg/mL (≈ 136 µM), the MIC [23] was 100 µg/mL (≈ 136 µM) and the MIC [24] was over 100 µg/mL. The MIC [25] was 100 µg/mL (≈ 136 µM), the MIC [26] was over 100 µg/mL and the MIC [27] was over 100 µg/mL. For the same molecule, the MIC [28] was 0.78 µg/mL (≈ 1.06 µM), the MIC [29] was over 100 µg/mL and the MIC [30] was over 100 µg/mL. For the same molecule, the MIC [31] was over 100 µg/mL, the MIC [32] was over 100 µg/mL and the MIC [33] was 3.1 µg/mL (≈ 4.22 µM).
`CCC1OC(=O)C(C)C(=O)C(C)C(OC2OC(C)CC(N(C)C)C2O)C(C)(OC)CC(C)C2=NC(CN(C)C)CN3C(=O)OC1(C)C3C2C` (stereo not drawn) [Example 97] showed an MIC [1] of 0.2 µg/mL (≈ 0.288 µM), an MIC [2] of 0.2 µg/mL (≈ 0.288 µM) and an MIC [3] of over 100 µg/mL. The MIC [4] was 0.2 µg/mL (≈ 0.288 µM), the MIC [5] was 0.78 µg/mL (≈ 1.12 µM) and the MIC [6] was 0.39 µg/mL (≈ 0.561 µM). It also gave an MIC [7] of over 100 µg/mL, an MIC [8] of 0.39 µg/mL (≈ 0.561 µM) and an MIC [9] of 0.1 µg/mL (≈ 0.144 µM). The MIC [10] was 0.78 µg/mL (≈ 1.12 µM), the MIC [11] was 0.05 µg/mL (≈ 0.072 µM) and the MIC [12] was 0.02 µg/mL (≈ 0.0288 µM). It also gave an MIC [13] of 0.01 µg/mL (≈ 0.0144 µM), an MIC [14] of 0.02 µg/mL (≈ 0.0288 µM) and an MIC [15] of over 100 µg/mL. It also gave an MIC [16] of 0.2 µg/mL (≈ 0.288 µM), an MIC [17] of 50 µg/mL (≈ 72 µM) and an MIC [18] of 0.39 µg/mL (≈ 0.561 µM). The MIC [19] was 50 µg/mL (≈ 72 µM), the MIC [20] was 25 µg/mL (≈ 36 µM) and the MIC [21] was 50 µg/mL (≈ 72 µM). For the same molecule, the MIC [22] was 100 µg/mL (≈ 144 µM), the MIC [23] was 100 µg/mL (≈ 144 µM) and the MIC [24] was over 100 µg/mL. The MIC [25] was over 100 µg/mL, the MIC [26] was over 100 µg/mL and the MIC [27] was over 100 µg/mL. The MIC [28] was 0.78 µg/mL (≈ 1.12 µM), the MIC [29] was over 100 µg/mL and the MIC [30] was over 100 µg/mL. It also gave an MIC [31] of over 100 µg/mL, an MIC [32] of over 100 µg/mL and an MIC [33] of 12.5 µg/mL (≈ 18 µM).
Work on `CC[C@H]1OC(=O)[C@H](C)C(=O)[C@H](C)[C@@H](O[C@@H]2O[C@H](C)C[C@H](N(C)C)[C@H]2O)[C@](C)(OC)C[C@@H](C)C2=N[C@H](COCc3ccccc3F)CN3C(=O)O[C@@]1(C)[C@H]3[C@H]2C` [Example 102] yielded an MIC [1] of 0.2 µg/mL (≈ 0.258 µM), an MIC [2] of 0.1 µg/mL (≈ 0.129 µM) and an MIC [3] of over 100 µg/mL. For the same molecule, the MIC [4] was 0.2 µg/mL (≈ 0.258 µM), the MIC [5] was 0.1 µg/mL (≈ 0.129 µM) and the MIC [6] was 0.1 µg/mL (≈ 0.129 µM). For the same molecule, the MIC [7] was over 100 µg/mL, the MIC [8] was 0.2 µg/mL (≈ 0.258 µM) and the MIC [9] was 0.01 µg/mL (≈ 0.0129 µM). It also gave an MIC [10] of 0.02 µg/mL (≈ 0.0258 µM), an MIC [11] of at most 0.005 µg/mL and an MIC [12] of 0.01 µg/mL (≈ 0.0129 µM). The MIC [13] was 0.01 µg/mL (≈ 0.0129 µM), the MIC [14] was 0.01 µg/mL (≈ 0.0129 µM) and the MIC [15] was over 100 µg/mL. The MIC [16] was 0.2 µg/mL (≈ 0.258 µM), the MIC [17] was 100 µg/mL (≈ 129 µM) and the MIC [18] was 0.39 µg/mL (≈ 0.503 µM). The MIC [19] was over 100 µg/mL, the MIC [20] was 50 µg/mL (≈ 64.4 µM) and the MIC [21] was over 100 µg/mL. It also gave an MIC [22] of over 100 µg/mL, an MIC [23] of over 100 µg/mL and an MIC [24] of over 100 µg/mL. For the same molecule, the MIC [25] was over 100 µg/mL, the MIC [26] was over 100 µg/mL and the MIC [27] was over 100 µg/mL. It also gave an MIC [28] of 3.1 µg/mL (≈ 4 µM), an MIC [29] of 50 µg/mL (≈ 64.4 µM) and an MIC [30] of over 100 µg/mL. For the same molecule, the MIC [31] was over 100 µg/mL, the MIC [32] was over 100 µg/mL and the MIC [33] was 0.01 µg/mL (≈ 0.0129 µM).
